In ChEMBL document CHEMBL6120946, “From Hit to Lead: Discovery of First-In-Class Furanone Glycoside D228 Derived from Chimonanthus salicifolius for the Treatment of Inflammatory Bowel Disease” (J Med Chem, 2024):
pIC50: −log10 of the molar value. Activity calls are given as the source filed them. No cut-off for these calls is given here.

Tests used:
[1] = tested on: Mus musculus; experiment: Antiinflammatory activity in DSS-induced male C57BL/6 mouse model of inflammatory bowel disease assessed as increase in colon length at 10 mg/kg/day, ip measured after 14 days relative to control; assay type: functional; settings: time 14 day
[2] = tested on: Mus musculus; experiment: Antiinflammatory activity in DSS-induced male C57BL/6 mouse model of inflammatory bowel disease assessed as increase in colon length at 40 mg/kg/day, ip measured after 14 days relative to control; assay type: functional; settings: time 14 day
[3] = Cytotoxicity against mouse Splenocyte by MTT assay; assay type: toxicity, cell-based; settings: splenocytes
[4] = tested on: B-cell line; experiment: Immunosuppressive activity in mouse B-lymphocyte assessed as reduction in LPS-induced cell proliferation incubated for 48 hrs; assay type: functional, cell-based
[5] = Selectivity ratio of CC50 for cytotoxicity against mouse Splenocyte to IC50 for immunosuppressive activity in mouse B-lymphocyte; assay type: toxicity; settings: splenocytes (CC50) and B-lymphocytes (IC50)
[6] = Immunosuppressive activity in mouse T-lymphocyte assessed as reduction in concanavalin A-induced cell proliferation incubated for 48 hrs; assay type: functional, cell-based
[7] = Selectivity ratio of CC50 for cytotoxicity against mouse Splenocyte to IC50 for immunosuppressive activity in mouse T-lymphocyte; assay type: toxicity; settings: splenocytes (CC50) and T-lymphocytes (IC50)
[8] = tested on: Mus musculus; experiment: Antiinflammatory activity in DSS-induced male C57BL/6 mouse model of inflammatory bowel disease assessed as increase in colon length at 30 mg/kg/day, po via gavage measured upto 14 days relative to control; assay type: functional; settings: time <= 14 day
[9] = tested on: Mus musculus; experiment: Antiinflammatory activity in DSS-induced male C57BL/6 mouse model of inflammatory bowel disease assessed as increase in colon length at 15 mg/kg/day, po via gavage measured upto 14 days relative to control; assay type: functional; settings: time <= 14 day
[10] = tested on: Mus musculus; experiment: Antiinflammatory activity in DSS-induced male C57BL/6 mouse model of inflammatory bowel disease assessed as recovery from body weight loss at 40 mg/kg/day, po measured after 7 days; assay type: functional, organism-based; settings: time 7.0 day
[11] = tested on: Mus musculus; experiment: Antiinflammatory activity in DSS-induced male C57BL/6 mouse model of inflammatory bowel disease assessed as recovery from body weight loss at 40 mg/kg/day, po measured after 7 days relative to control; assay type: functional; settings: time 7 day
[12] = tested on: Mus musculus; experiment: Antiinflammatory activity in DSS-induced male C57BL/6 mouse model of inflammatory bowel disease assessed as recovery in colon length at 40 mg/kg/day, po measured after 7 days relative to control; assay type: functional; settings: time 7 day
[13] = Half life in male C57 mouse at 1 mg/kg, iv measured upto 24 hrs; assay type: ADME, organism-based; settings: in vivo
[14] = Apparent volume of distribution in male C57 mouse at 1 mg/kg, iv measured upto 24 hrs; assay type: ADME, organism-based; settings: in vivo, read-out: Vz
[15] = AUC last in male C57 mouse at 1 mg/kg, iv measured upto 24 hrs; assay type: ADME, organism-based; settings: in vivo
[16] = AUC infinity in male C57 mouse at 1 mg/kg, iv measured upto 24 hrs; assay type: ADME, organism-based; settings: in vivo
[17] = MRT last in male C57 mouse at 1 mg/kg, iv measured upto 24 hrs; assay type: ADME, organism-based; settings: in vivo
[18] = Clearance in male C57 mouse at 1 mg/kg, iv measured upto 24 hrs; assay type: ADME, organism-based; settings: in vivo
[19] = Cmax in male C57 mouse at 5 mg/kg, po measured upto 24 hrs; assay type: ADME, organism-based; settings: in vivo
[20] = Tmax in male C57 mouse at 5 mg/kg, po measured upto 24 hrs; assay type: ADME, organism-based; settings: in vivo
[21] = Half life in male C57 mouse at 5 mg/kg, po measured upto 24 hrs; assay type: ADME, organism-based; settings: in vivo
[22] = Apparent volume of distribution in male C57 mouse at 5 mg/kg, po measured upto 24 hrs; assay type: ADME, organism-based; settings: in vivo
[23] = AUC last in male C57 mouse at 5 mg/kg, po measured upto 24 hrs; assay type: ADME, organism-based; settings: in vivo
[24] = AUC infinity in male C57 mouse at 5 mg/kg, po measured upto 24 hrs; assay type: ADME, organism-based; settings: in vivo
[25] = MRT last in male C57 mouse at 5 mg/kg, po measured upto 24 hrs; assay type: ADME, organism-based; settings: in vivo
[26] = Clearance in male C57 mouse at 5 mg/kg, po measured upto 24 hrs; assay type: ADME, organism-based; settings: in vivo
[27] = Oral bioavailability in male C57 mouse at 5 mg/kg measured upto 24 hrs; assay type: ADME, organism-based; settings: in vivo
[28] = species on record: Mus musculus; experiment: Antiinflammatory activity in DSS-induced male C57BL/6 mouse model of inflammatory bowel disease assessed as reduction in JNK level; assay type: functional, organism-based
[29] = tested on: Mus musculus; experiment: Antiinflammatory activity in DSS-induced male C57BL/6 mouse model of inflammatory bowel disease assessed as decrease in p38 phosphorylation level at 50 to 100 microM/Kg by Western blot analysis; assay type: functional, organism-based; settings: dose 50-100 µM/Kg
[30] = tested on: Mus musculus; experiment: Antiinflammatory activity in DSS-induced male C57BL/6 mouse model assessed as inhibition of IL-6 level in colon at 50 to 100 microM/Kg; assay type: functional, organism-based; settings: dose 50-100 µM/Kg
[31] = Acute toxicity in female Kunming mouse assessed as effect on lung 5 g/Kg, po measured after 5 weeks; assay type: organism-based; settings: in vivo, 5000 mg/kg, 840 h
[32] = Toxicity in male Kunming mouse assessed as change in food intake at 100 to 500 mg/kg/day, po measured after 5 weeks; assay type: organism-based; settings: in vivo, 840 h, dose 100-500 mg/kg/day
[33] = Toxicity in male Kunming mouse assessed as effect on liver to body weight ratio at 100 to 500 mg/kg/day, po measured after 5 weeks; assay type: organism-based; settings: in vivo, 840 h, dose 100-500 mg/kg/day
[34] = Toxicity in male Kunming mouse assessed as effect on ALP level in serum at 100 to 500 mg/kg/day, po measured after 5 weeks; assay type: organism-based; settings: in vivo, 840 h, dose 100-500 mg/kg/day
[35] = Toxicity in male Kunming mouse assessed as effect on BUN level in serum at 100 to 500 mg/kg/day, po measured after 5 weeks; assay type: organism-based; settings: in vivo, 840 h, dose 100-500 mg/kg/day
[36] = Toxicity in male Kunming mouse assessed as effect on GLU level in serum at 100 to 500 mg/kg/day, po measured after 5 weeks; assay type: organism-based; settings: in vivo, 840 h, dose 100-500 mg/kg/day
[37] = Toxicity in male Kunming mouse assessed as effect on TG level in serum at 100 to 500 mg/kg/day, po measured after 5 weeks; assay type: organism-based; settings: in vivo, 840 h, dose 100-500 mg/kg/day
[38] = Toxicity in male Kunming mouse assessed as effect on T-CHO level in serum at 100 to 500 mg/kg/day, po measured after 5 weeks; assay type: organism-based; settings: in vivo, 840 h, dose 100-500 mg/kg/day
[39] = Toxicity in male Kunming mouse assessed as effect on K inorganic salt level in serum at 100 to 500 mg/kg/day, po measured after 5 weeks; assay type: organism-based; settings: in vivo, 840 h, dose 100-500 mg/kg/day
[40] = Toxicity in female Kunming mouse assessed as effect on spleen to body weight ratio at 100 to 500 mg/kg/day, po measured after 5 weeks; assay type: organism-based; settings: in vivo, 840 h, dose 100-500 mg/kg/day
[41] = Toxicity in female Kunming mouse assessed as effect on lung at 100 to 500 mg/kg/day, po measured after 5 weeks by H and E staining based analysis; assay type: organism-based; settings: in vivo, 840 h, dose 100-500 mg/kg/day
[42] = Toxicity in female Kunming mouse assessed as effect on ALT level in serum at 100 to 500 mg/kg/day, po measured after 5 weeks; assay type: organism-based; settings: in vivo, 840 h, dose 100-500 mg/kg/day
[43] = Toxicity in female Kunming mouse assessed as effect on CK level in serum at 100 to 500 mg/kg/day, po measured after 5 weeks; assay type: organism-based; settings: in vivo, 840 h, dose 100-500 mg/kg/day
[44] = Toxicity in female Kunming mouse assessed as lethal dose administered as po measured after 5 weeks; assay type: organism-based; settings: in vivo

Row | Compound | CC50 [3] [µM] | pIC50 [4] | selectivity ratio [5] | pIC50 [6] | selectivity ratio [7] | Activity [10] | Activity [11] [%] | Activity [12] [%] | half-life [13] [min] | Vd [14] [L/kg] | AUC(0-t) at 24 h [15] [ng·h/mL] | AUC(0-inf) [16] [ng·h/mL] | MRT last at 24 h [17] [min] | clearance [18] [mL/min/kg] | Cmax [19] [ng/mL] | Tmax [20] [min] | Vz [22] [L/kg] | AUC(0-t) at 24 h [23] [ng·h/mL] | AUC(0-inf) [24] [ng·h/mL] | MRT last at 24 h [25] [min] | further results
1 | CC(C)=C1OC(C)=C(O[C@@H]2O[C@H](CO)[C@@H](O)[C@H](O)[C@H]2O)C1=O | 149 | 4.07 | 1.9 | 3.51 | 0.63 | Active | 45.6 | 50.5 | 27 | 1.09 | 592 | 594 | 19.8 | 28.5 | 284 | 15 | 29.6 | 177 | 180 | 254 | Activity [1]: 20.4%; Activity [2]: 69.4%; Activity [8]: 65.6%; Activity [9]: 79.1%; t1/2 ([21]; mouse, po, 5 mg/kg, 24 h): 332 min; CL ([26]; mouse, po, 5 mg/kg, 24 h): 475.7 mL/min/kg; bioavailability [27]: 6%; Activity [28]: Active
2 | CC(=O)OC[C@H]1O[C@@H](OC2=C(C)OC(=C(C)C)C2=O)[C@H](OC(C)=O)[C@@H](OC(C)=O)[C@@H]1OC(C)=O | 60 | 5.50 | 22 | 4.37 | 1.44 | Active | 27 | 33.3 | 16.2 | 9.25 | 32.3 | 44 | 10.2 | 397 | 48.4 | 19.8 | 137.3 | 58.3 | 93.6 | 63.6 | Activity [29]: Active; Activity [30]: Active; half-life ([21]; male, C57, mouse): 115 min; CL/F ([26]; male, C57, mouse): 915 mL/min/kg; bioavailability [27]: 36.1%; Activity [31]: Non-toxic; Activity [32]: Non-toxic; Activity [33]: Non-toxic; Activity [34]: Non-toxic; Activity [35]: Non-toxic; Activity [36]: Non-toxic; Activity [37]: Non-toxic; Activity [38]: Non-toxic; Activity [39]: Non-toxic; Activity [40]: Non-toxic; Activity [41]: Non-toxic; Activity [42]: Non-toxic; Activity [43]: Non-toxic; LD50 at 840 h [44]: > 500 mg/kg
